Experimental data as given in publication PMC7913927, “Leishmanicidal Activity of Betulin Derivatives in Leishmania amazonensis; Effect on Plasma and Mitochondrial Membrane Potential, and Macrophage Nitric Oxide and Superoxide Production” (Microorganisms, 2021).
Entries after “also recorded” stand apart in the source; their conditions may differ.

Experiments:
[1] = test system: J774.1 macrophages, healthy or infected with LTB0016, VE98MR or VE2000MM; assay: Superoxide (O2−) production, ferricytochrome c reduction; type: cell-based, murine; conditions: LTB0016- and VE98MR-infected macrophages; 48 h; 18: 1 and 2 µM
Description: The intracellular oxidative burst was evaluated by the production of the superoxide anion O2^−, using the method of reduction of ferricytochrome c, previously described. Macrophages from preceding experiments were used after removing the supernatant; the cells pretreated with compounds or AmB as positive control of the experiment were resuspended in 100 µL of Hanks saline (HBSS: 137 mM NaCl, 5.4 mM KCl, 1 mM MgSO4⋅7H2O, 1.3 mM CaCl2⋅H2O, 0.3 mM Na2HPO4, 0.44 mM KH2PO4, 4.2 mM NaHCO3, 5 mM glucose, pH 7.2) and incubated for 1 h in the presence of 2 mg mL^−1 (160 µM) of cytochrome c type III, at 37 °C and 5% CO2. The supernatant was saved to measure the change in optical density at 550 nm. Three independent experiments were performed in duplicate. The superoxide anion concentration was calculated using the reduced molar extinction coefficient of cytochrome c, 21 mM^−1 cm^−1. Therefore, [O2^−] = (ΔOD/6.3) × 100, where ΔOD is the variation of the optical density (reading-blank), and the result obtained corresponds to the concentration of superoxide anion expressed in nanomoles of O2^− released/2 × 10^5 cells. MLF (5 µM) and amphotericin-B (AmB, 0.1 µM), known to induce NO production in macrophages, were included as controls.

[2] = test system: L. (L.) amazonensis LTB0016, VE98MR and VE2000MM promastigotes; assay: Plasma membrane potential (ΔΨp), bisoxonol fluorescence; type: cell-based, Leishmania amazonensis; conditions: promastigotes of LTB0016, VE98MR, VE2000MM; 15 min; 18: 1 and 2 µM; vs untreated
Description: To evaluate the plasma membrane potential (ΔΨp), the fluorescent compound, bisoxonol, bis[1,3-diethylthiobarbituric acid] trimethine oxonol, was used, as well as a method optimized by Padrón-Nieves et al.. Initially, calibration curves for each strain, using increasing concentrations of KCl (0.5 to 75 mM), were performed in the late log growth phase Leishmania promastigotes in the presence of the potassium ionophore valinomycin. By this procedure, fluorescence values could be transformed into millivolts (mV), applying the Nernst equation, ΔΨp = −59.4 log(120/[KCl]). […] After 10 min of incubation in the dark, fluorescence was measured in a Victor^2 Wallac spectrofluorometer (Perkin Elmer, Turku, Finland), using the appropriate wavelengths (ex: 540 nm/em: 580 nm). […] Once the corresponding calibration curve for each strain was obtained, the effect of compounds on the ΔΨp was evaluated. […] After 10 min of incubation in the dark, fluorescence was measured, using the appropriate wavelengths (ex: 540 nm/em: 580 nm). […] To transform the fluorescence values in millivolts (mV), calibration curves were prepared using increasing concentrations of KCl (0.5, 1.15, 2.5, 5, 10, 20, 40, and 75 mM). […]

[3] = test system: L. (L.) donovani axenic amastigotes; conditions: cited from earlier work

SMILES: C=C(C)C1CCC2(C=NO)CCC3(C)C(CCC4C5(C)CCC(=NO)C(C)(C)C5CCC43C)C12 (stereo not drawn) [Compound 18]
- Superoxide production, infected macrophages [1]: induced superoxide production in infected macrophages; also recorded: inducing an oxidative burst and thus increasing O2^− production
- Effect on plasma membrane potential (ΔΨp) [2]: significantly depolarized; also recorded: significantly depolarize the ΔΨp in all evaluated strains; also recorded: the collapse of the plasma membrane potential (ΔΨp) in a concentration-dependent way
- GI50 [3]: 22.8 µM
